Reference: PubChem BioAssay (NCI)
“And” between values parts separate entries of the source, which are not always exact repeats. Identical values can stand only once.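 Assay format: 96-well plates, 48-hour exposure. GI50: concentration for 50% inhibition of growth. TGI: total growth inhibition.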

Assays:
Experiment in all cases: NCI-60 cell line screen, 48 h
ACHN renal = system: ACHN renal
CCRF-CEM leukemia = system: CCRF-CEM leukemia
HCT-116 colon = system: HCT-116 colon
HL-60(TB) leukemia = system: HL-60(TB) leukemia
M14 melanoma = system: M14 melanoma
MDA-MB-435 = system: MDA-MB-435
NCI-H522 lung = system: NCI-H522 lung
OVCAR-8 ovarian = system: OVCAR-8 ovarian
SF-268 CNS = system: SF-268 CNS
SN12C renal = system: SN12C renal

| Compound | GI50 (ACHN renal) | TGI (ACHN renal) | GI50 (CCRF-CEM leukemia) | TGI (CCRF-CEM leukemia) | GI50 (HCT-116 colon) | TGI (HCT-116 colon) | GI50 (HL-60(TB) leukemia) | TGI (HL-60(TB) leukemia) | GI50 (M14 melanoma) | TGI (M14 melanoma) | GI50 (MDA-MB-435) | TGI (MDA-MB-435) | GI50 (NCI-H522 lung) | TGI (NCI-H522 lung) | GI50 (OVCAR-8 ovarian) | TGI (OVCAR-8 ovarian) | GI50 (SF-268 CNS) | TGI (SF-268 CNS) | GI50 (SN12C renal) | TGI (SN12C renal) |
| --- | --- | --- | --- | --- | --- | --- | --- | --- | --- | --- | --- | --- | --- | --- | --- | --- | --- | --- | --- | --- |
| NC(=S)N/N=C\c1nccc2c(C(F)(F)C(F)(F)C(F)(F)F)cccc12 | 0.0582 µM | 1.31 µM | 0.0427 µM | > 100 µM | 0.0348 µM | 1.45 µM | 0.0649 µM | 0.665 µM | 0.0662 µM | 0.589 µM | 0.376 µM | > 31.6 µM | 0.211 µM | 0.756 µM | 0.0402 µM | 1.59 µM | 0.0983 µM | 4.22 µM | 0.116 µM | 2.31 µM |
| Cc1cc(Cl)ccc1NC(=O)NC(C)(C)COC(=O)Nc1cccc(Cl)c1 | 5.6 µM | > 100 µM | 3.88 µM | 37.3 µM | 6.3 µM | > 100 µM | 9.71 µM | 71.9 µM | 8.38 µM | > 100 µM | 10.9 µM | 49.4 µM |  |  | 5.42 µM | 64.8 µM | 13.5 µM | 78 µM | 7.14 µM | > 100 µM |
| O=[N+]([O-])c1ccc(NC(=S)N/N=C(\c2ccccc2)c2ccccn2)cc1 | 1.34 µM | 2.62 µM and 2.39 µM | 0.0073 µM | 2.31 µM and 10.2 µM |  | 3.21 µM | 1.59 µM | 4.32 µM and > 20.4 µM | 1.38 µM | 2.33 µM and 2.77 µM |  | 3.15 µM and 3.17 µM | 1.97 µM | 4.2 µM and 1.48 µM | 0.0275 µM | 1.06 µM and 1.42 µM |  | 1.9 µM and 1.84 µM |  | 2.83 µM |
| Cc1ccc([N+](=O)[O-])cc1NC(=O)C(=O)C1CCC2=C(Sc3ccccc3N2)C1=O (stereo unspecified) |  | > 100 µM |  | > 100 µM |  | > 100 µM |  | > 100 µM |  | > 100 µM |  | > 100 µM |  | > 100 µM |  | > 100 µM |  | > 100 µM |  | > 100 µM |
| C=C(C)[C@@H]1CC[C@]2(C)[C@H](CC=C3[C@@H]4[C@H](C)[C@@H](C)CC[C@]4(CO)CC[C@]32C)[C@@]1(C)CCCN | 1.42 µM | 3.4 µM | 1.31 µM | 5.26 µM | 0.807 µM | 1.54 µM | 1.03 µM | 2.27 µM | 0.846 µM | 1.76 µM | 0.953 µM | 1.81 µM | 1.04 µM | 2.17 µM | 1.16 µM | 2.8 µM | 1.22 µM | 2.69 µM | 0.839 µM | 1.67 µM |
| O=C(Nc1cccc([N+](=O)[O-])c1)c1cc2ccccc2cc1O | 2.03 µM | 7.79 µM | 2.38 µM | 6.66 µM | 0.772 µM | 3.17 µM | 0.59 µM | 3.03 µM | 1.58 µM | 6.68 µM | 1.5 µM | 5.41 µM | 0.384 µM | 2.66 µM | 3.31 µM | 26.1 µM | 2.98 µM | > 100 µM | 1.17 µM | 7.78 µM |
| CN(C)CCNc1c2c(c(NCCN(C)C)c3c(CO)c[nH]c13)C(=O)c1ccccc1C2=O | 1.92 µM | 9.96 µM | 3.07 µM | > 32.1 µM | 0.721 µM | 10.9 µM | 29.9 µM | > 100 µM | 2.04 µM | 4.57 µM | 4.56 µM | 20.6 µM | 4.6 µM | 24.1 µM | 8.53 µM | > 39.4 µM | 4.27 µM | 22.1 µM | 1.25 µM | 8.33 µM |
| O[C@H](CN1CC1)[C@@H](O)CN1CC1 | 0.499 µM | 14.7 µM | 0.604 µM | > 100 µM | 5.83 µM | 35.6 µM | 1.22 µM | > 100 µM | 3.77 µM | 22.3 µM | 10.5 µM | 29.8 µM | 8.2 µM | 83.3 µM | 3.75 µM | > 100 µM | 2.6 µM | 30.8 µM | 1.86 µM | > 100 µM |
| CN1N=Nc2c(C(F)(F)F)nn(-c3ccccc3)c2N(C)C1=O | > 100 µM | > 100 µM |  |  | > 100 µM | > 100 µM | > 32 µM | > 52.7 µM | > 100 µM | > 100 µM | > 100 µM | > 100 µM | > 100 µM | > 100 µM |  | > 100 µM | > 100 µM | > 100 µM | > 100 µM | > 100 µM |
